# Measured values as given in ChEMBL document CHEMBL1123832, “Structure-activity relationships in an imidazole-based series of thromboxane synthase inhibitors” (J Med Chem, 1987).
# Key:
# Thromboxane-A synthase [1] = target: T1, Thromboxane-A synthase (Homo sapiens, UniProt P24557); experiment: Tested for inhibitory activity against intact human platelet TXA2 formation; type: functional
# T1 sequence (P24557 whole entry): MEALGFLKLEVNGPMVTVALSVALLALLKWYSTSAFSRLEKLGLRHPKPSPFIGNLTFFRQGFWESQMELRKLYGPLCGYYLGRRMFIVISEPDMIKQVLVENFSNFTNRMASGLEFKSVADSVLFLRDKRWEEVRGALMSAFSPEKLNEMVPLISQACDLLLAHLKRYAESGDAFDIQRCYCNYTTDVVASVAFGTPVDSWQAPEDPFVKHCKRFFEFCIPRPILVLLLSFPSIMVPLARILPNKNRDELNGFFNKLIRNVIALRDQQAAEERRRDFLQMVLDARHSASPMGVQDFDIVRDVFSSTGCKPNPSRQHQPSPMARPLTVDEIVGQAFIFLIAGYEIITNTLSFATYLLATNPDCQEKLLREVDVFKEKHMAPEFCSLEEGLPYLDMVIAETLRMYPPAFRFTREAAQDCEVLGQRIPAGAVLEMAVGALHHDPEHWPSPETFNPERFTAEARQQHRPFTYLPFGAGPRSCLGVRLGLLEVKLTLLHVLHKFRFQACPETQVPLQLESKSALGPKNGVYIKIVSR
# Thromboxane-A synthase [2] = target: T1, Thromboxane-A synthase; experiment: Compound was tested for inhibitory activity against human platelet microsomal TXA2 synthase
SMILES,IC50 (Thromboxane-A synthase [1]),IC50 (Thromboxane-A synthase [2])
CCCOC(=O)c1ccc(COC(COCc2ccc(OC)cc2)Cn2ccnc2)cc1 (stereo unspecified),0.18 µM,
COC(=O)c1ccc(COC(COCc2ccc(OC)cc2)Cn2ccnc2)cc1 (stereo unspecified),1.26 µM,
COc1ccc(COCC(Cn2ccnc2)OCc2ccc(S(C)(=O)=O)cc2)cc1 (stereo unspecified),24.9 µM,
COc1ccc(COCC(Cn2ccnc2)OCc2ccc(C(=O)Oc3ccccc3)cc2)cc1 (stereo unspecified),0.56 µM,
CCOC(=O)c1ccc(COCC(Cn2ccnc2)OCc2ccc(OC)cc2)cc1 (stereo unspecified),3.6 µM,
COc1ccc(COCC(Cn2ccnc2)OCc2ccc(C(N)=O)cc2)cc1 (stereo unspecified),6 µM,
COc1ccc(COCC(Cn2ccnc2)OCc2ccc3c(c2)COC3=O)cc1 (stereo unspecified),6.2 µM,
COc1ccc(COCC(Cn2ccnc2)OCc2ccc(SC)cc2)cc1 (stereo unspecified),6.4 µM,
COc1ccc(COCC(Cn2ccnc2)OCc2ccc(C(=O)O)cc2)cc1 (stereo unspecified),6.7 µM,1.1 µM
COc1ccc(COCC(Cn2ccnc2)OCc2ccc(C(=O)OC(C)C)cc2)cc1 (stereo unspecified),1.61 µM,
COc1ccc(COCC(Cn2ccnc2)OCc2ccc(C(=O)OCc3ccccc3)cc2)cc1 (stereo unspecified),1.49 µM,7.1 µM
CCCCOC(=O)c1ccc(COC(COCc2ccc(OC)cc2)Cn2ccnc2)cc1 (stereo unspecified),0.2 µM,2 µM
CCNC(=O)c1ccc(COC(COCc2ccc(OC)cc2)Cn2ccnc2)cc1 (stereo unspecified),12.4 µM,
COc1ccc(COCC(Cn2ccnc2)OCc2ccc(C(=O)N(C)C)cc2)cc1 (stereo unspecified),1.94 µM,
CCCCN(C)C(=O)c1ccc(COC(COCc2ccc(OC)cc2)Cn2ccnc2)cc1 (stereo unspecified),5.4 µM,
COc1ccc(COCC(Cn2ccnc2)OCc2ccc([S+](C)[O-])cc2)cc1 (stereo unspecified),8.6 µM,
CCCCCCCCOC(=O)c1ccc(COC(COCc2ccc(OC)cc2)Cn2ccnc2)cc1 (stereo unspecified),21 µM,
CCOC(=O)c1ccc(COCC(Cn2ccnc2)OCc2ccc(C(=O)OCC)cc2)cc1 (stereo unspecified),0.7 µM,
COc1ccc(COCC(Cn2ccnc2)OCc2ccc(OC)cc2)cc1 (stereo unspecified),9.9 µM,
CCOC(=O)c1cccc(COC(COCc2ccc(OC)cc2)Cn2ccnc2)c1 (stereo unspecified),7.2 µM,
COc1ccc(COCC(Cn2ccnc2)OCc2ccc(C(=S)N(C)C)cc2)cc1 (stereo unspecified),12.4 µM,
CCOC(=O)c1ccc(COC(COCc2ccc(OC)cc2)Cn2ccnc2)cc1 (stereo unspecified),0.54 µM,5.3 µM
